“And” between values parts separate entries of the source, which are not always exact repeats. Equal values may be shown once.
Tested on: 324938-238-R-J1-PDC complex spheroid growth, % test/control
Assay: Anticancer human tumor 324938-238-R-J1-PDC patient-derived bladder carcinoma cell line growth inhibition [AhR]
Conditions: for viability, T/C: stronger effect = lower value
Method in brief: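 Agents were dosed in half-log steps down from roughly clinical Cmax, or from 10 microM where Cmax was unknown, alone and with AhR antagonists. Read-out: percent test/control growth of tumor spheroids containing HUVEC and MSC stromal cells.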

[1] = curve of first compound, second compound 0.1 µM
[2] = curve of first compound, second compound 0.316 µM
[3] = curve of first compound, second compound 1 µM
[4] = curve of first compound, second compound 3.16 µM
[5] = curve of first compound, second compound 10 µM
[6] = second compound 0.1 µM, first compound 0.0316 µM
[7] = second compound 0.1 µM, first compound 0.1 µM
[8] = second compound 0.1 µM, first compound 0.316 µM
[9] = second compound 0.1 µM, first compound 1 µM
[10] = second compound 0.1 µM, first compound 3.16 µM
[11] = second compound 0.1 µM, first compound 10 µM
[12] = second compound 0.316 µM, first compound 0.0316 µM
[13] = second compound 0.316 µM, first compound 0.1 µM
[14] = second compound 0.316 µM, first compound 0.316 µM
[15] = second compound 0.316 µM, first compound 1 µM
[16] = second compound 0.316 µM, first compound 3.16 µM
[17] = second compound 0.316 µM, first compound 10 µM
[18] = second compound 1 µM, first compound 0.0316 µM
[19] = second compound 1 µM, first compound 0.1 µM
[20] = second compound 1 µM, first compound 0.316 µM
[21] = second compound 1 µM, first compound 1 µM
[22] = second compound 1 µM, first compound 3.16 µM
[23] = second compound 1 µM, first compound 10 µM
[24] = second compound 3.16 µM, first compound 0.0316 µM
[25] = second compound 3.16 µM, first compound 0.1 µM
[26] = second compound 3.16 µM, first compound 0.316 µM
[27] = second compound 3.16 µM, first compound 1 µM
[28] = second compound 3.16 µM, first compound 3.16 µM
[29] = second compound 3.16 µM, first compound 10 µM
[30] = second compound 10 µM, first compound 0.0316 µM
[31] = second compound 10 µM, first compound 0.1 µM
[32] = second compound 10 µM, first compound 0.316 µM
[33] = second compound 10 µM, first compound 1 µM
[34] = second compound 10 µM, first compound 3.16 µM
[35] = second compound 10 µM, first compound 10 µM
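Also: spheroids exposed to agents for seven days before viability read.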

Nc1ccn(C2OC(CO)C(O)C2(F)F)c(=O)n1 (stereo unspecified) + Cc1cncc(-c2nc(NCCc3c[nH]c4ccccc34)c3ncn(C(C)C)c3n2)c1
IC50 [1]: > 10 µM
IC50 [2]: > 10 µM
IC50 [3]: > 10 µM
IC50 [4]: > 10 µM
IC50 [5]: < 0.0316 µM
viability, T/C [6]: 105%
viability, T/C [7]: 81.5%
viability, T/C [8]: 88.5%
viability, T/C [9]: 51.6%
viability, T/C [10]: 83.9%
viability, T/C [11]: 84.1%
viability, T/C [12]: 79.4%
viability, T/C [13]: 61.6%
viability, T/C [14]: 79.2%
viability, T/C [15]: 87.2%
viability, T/C [16]: 93.3%
viability, T/C [17]: 111%
viability, T/C [18]: 95.1%
viability, T/C [19]: 65.9%
viability, T/C [20]: 79.8%
viability, T/C [21]: 84.1%
viability, T/C [22]: 69.6%
viability, T/C [23]: 84.5%
viability, T/C [24]: 95.2%
viability, T/C [25]: 74.3%
viability, T/C [26]: 119%
viability, T/C [27]: 84.3%
viability, T/C [28]: 120%
viability, T/C [29]: 72.5%
viability, T/C [30]: 45.5%
viability, T/C [31]: 53.7%
viability, T/C [32]: 49.7%
viability, T/C [33]: 49.3%
viability, T/C [34]: 62.2%
viability, T/C [35]: 62.7%

Nc1ccccc1NC(=O)c1ccc(CNC(=O)OCc2cccnc2)cc1
viability, T/C (compound 0.0316 µM): 90% and 112% and 121%
viability, T/C (compound 0.1 µM): 80.4% and 111% and 110%
viability, T/C (compound 0.316 µM): 57.2% and 107% and 97.9%
viability, T/C (compound 1 µM): 61.7% and 69% and 70.3%
viability, T/C (compound 3.16 µM): 37.1% and 43.2% and 58.1%
IC50 (curve of compound): 1.31 µM and 2.2 µM and 3.5 µM

COc1ccc([C@@H](O)c2cc(-c3ncnc4cc(N5CCOCC5)ccc34)c(F)cc2Cl)nn1 + Cc1ccccc1N=Nc1ccc(NC(=O)c2ccnn2C)c(C)c1
IC50 [1]: > 10 µM
IC50 [2]: > 10 µM
IC50 [3]: > 10 µM
IC50 [4]: 9.01 µM
IC50 [5]: 7.49 µM
viability, T/C [6]: 109%
viability, T/C [7]: 110%
viability, T/C [8]: 98.5%
viability, T/C [9]: 96.8%
viability, T/C [10]: 80.7%
viability, T/C [11]: 65.2%
viability, T/C [12]: 94.3%
viability, T/C [13]: 99.9%
viability, T/C [14]: 89.8%
viability, T/C [15]: 83.4%
viability, T/C [16]: 74.9%
viability, T/C [17]: 58.6%
viability, T/C [18]: 100%
viability, T/C [19]: 87.6%
viability, T/C [20]: 93%
viability, T/C [21]: 84.1%
viability, T/C [22]: 72.2%
viability, T/C [23]: 55.4%
viability, T/C [24]: 83.5%
viability, T/C [25]: 83.5%
viability, T/C [26]: 75.7%
viability, T/C [27]: 65.1%
viability, T/C [28]: 57.4%
viability, T/C [29]: 48.8%
viability, T/C [30]: 72.7%
viability, T/C [31]: 81.1%
viability, T/C [32]: 72.7%
viability, T/C [33]: 66.6%
viability, T/C [34]: 59.2%
viability, T/C [35]: 47%

CCc1c2c(nc3ccc(O)cc13)-c1cc3c(c(=O)n1C2)COC(=O)[C@]3(O)CC + Cc1cncc(-c2nc(NCCc3c[nH]c4ccccc34)c3ncn(C(C)C)c3n2)c1
IC50 [1]: > 0.3 µM
IC50 [2]: > 0.3 µM
IC50 [3]: > 0.3 µM
IC50 [4]: 0.204 µM
IC50 [5]: < 0.000949 µM
viability, T/C (second compound 0.1 µM, first compound 0.000949 µM): 89.1%
viability, T/C (second compound 0.1 µM, first compound 0.003 µM): 71.7%
viability, T/C (second compound 0.1 µM, first compound 0.00949 µM): 91.8%
viability, T/C (second compound 0.1 µM, first compound 0.03 µM): 65.7%
viability, T/C (second compound 0.1 µM, first compound 0.0949 µM): 83.1%
viability, T/C (second compound 0.1 µM, first compound 0.3 µM): 80.9%
viability, T/C (second compound 0.316 µM, first compound 0.000949 µM): 82.3%
viability, T/C (second compound 0.316 µM, first compound 0.003 µM): 81.9%
viability, T/C (second compound 0.316 µM, first compound 0.00949 µM): 102%
viability, T/C (second compound 0.316 µM, first compound 0.03 µM): 97.3%
viability, T/C (second compound 0.316 µM, first compound 0.0949 µM): 63.5%
viability, T/C (second compound 0.316 µM, first compound 0.3 µM): 61.4%
viability, T/C (second compound 1 µM, first compound 0.000949 µM): 88.5%
viability, T/C (second compound 1 µM, first compound 0.003 µM): 71.3%
viability, T/C (second compound 1 µM, first compound 0.00949 µM): 93.6%
viability, T/C (second compound 1 µM, first compound 0.03 µM): 76%
viability, T/C (second compound 1 µM, first compound 0.0949 µM): 73.9%
viability, T/C (second compound 1 µM, first compound 0.3 µM): 70.3%
viability, T/C (second compound 3.16 µM, first compound 0.000949 µM): 71.7%
viability, T/C (second compound 3.16 µM, first compound 0.003 µM): 95.7%
viability, T/C (second compound 3.16 µM, first compound 0.00949 µM): 91.7%
viability, T/C (second compound 3.16 µM, first compound 0.03 µM): 79.3%
viability, T/C (second compound 3.16 µM, first compound 0.0949 µM): 55.4%
viability, T/C (second compound 3.16 µM, first compound 0.3 µM): 47.2%
viability, T/C (second compound 10 µM, first compound 0.000949 µM): 2.77%
viability, T/C (second compound 10 µM, first compound 0.003 µM): 3.5%
viability, T/C (second compound 10 µM, first compound 0.00949 µM): 8.95%
viability, T/C (second compound 10 µM, first compound 0.03 µM): 6.69%
viability, T/C (second compound 10 µM, first compound 0.0949 µM): 10.2%
viability, T/C (second compound 10 µM, first compound 0.3 µM): 10.6%
